Results: patent publication US20040067965A1, “Antiviral method of use” (priority 2001, published 2004)
pIC50: −log10 of the molar value.

Tests used:
[1] = system: HCMV strain AD169; assay: HCMV plaque reduction (inhibition of virus replication in cell culture); format: cell-based, human cytomegalovirus; conditions: for pIC50: Human betaherpesvirus 5, MRC5, HCMV strain AD169, plaque formation, MRC-5 cells, read-out: IC50 = 50% Inhibitory Concentration of HCMV strain AD169 induced plaque formation in MRC-5 Cells
Source text: All materials required for this testing are commercially available. The testing method described is well documented in the literature, see, e.g. Colacino, J M and Lopez C., 1983, “Efficacy and selectivity of some nucleoside analogs as anti-human cytomegalovirus agents.” Antimicrob. Agents Chemother. 24:505-508; Colacino, J M and Lopez C., 1985, “Antiviral activity of 2′-deoxy-2′-fluoro-beta-D-arabinofuranosyl-5-iodocytosine against human cytomegalovirus in human skin fibroblasts.” Antimicrob. Agents Chemother. 28:252-258; and Mauldin, S C, Paget C J Jr., Jones C D, Colacino J M, Baxter A J, Staschke K A, Johansson N G, and Vrang L., 1998, “Synthesis and antiviral activity of prodrugs of the nucleoside 1-[2′,3′-dideoxy-3′-C-(hydroxymethyl)-beta-D-erythropentofuranosyl] cytosine.” Bioorg. Med Chem. 6:577-585.
Human fibroblast cells, foreskin or fetal lung cells, are infected with human cytomegalovirus. The cells are incubated with standard cell culture media containing no or increasing concentrations of ALIMTA. […] Additionally the yield of virus produced in the non-treated infected cell control cultures is compared to the yield of virus produced in the treated infected cell cultures.
The percent inhibition of virus replication can be determined and the concentration of molecule required to inhibit viral replication by 50% (IC50) and 90% (IC90) can be calculated using linear regression analysis.

[2] = in vitro; format: cell-based; conditions: human

Row | Compound | Comments (HCMV screening summary) ([1]; HCMV strain AD169 in MRC-5 cells) | pIC50 [1] | TI (Therapeutic Index) = TC50/IC50 ([1]; TC50 (MRC-5) / IC50 (HCMV AD169 plaque formation), called selective index in text) | CC50 [2]
1 | Nc1nc2[nH]cc(CCc3ccc(C(=O)N[C@@H](CCC(=O)[O-])C(=O)[O-])cc3)c2c(=O)[nH]1.[Na+].[Na+] [ALIMTA, disodium N-[4-[2-(2-amino-4,7-dihydro-4-oxo-3H-pyrrolo[2,3-d]-pyrimidin-5-yl)ethyl]benzoyl]-L-glutamic acid salt] | High activity | 6.54 | >344.8 | > 100 µM
2 | Nc1nc(O)c2ncn(COC(CO)CO)c2n1 [Ganciclovir] | – | 5.20 | – | > 100 µM
